Data reported in ChEMBL document CHEMBL1121374, “Analgesic narcotic antagonists. 4. 7-Methyl-N-(cycloalkylmethyl)-3-hydroxymorphinan-6-ones and -isomorphinan-6-ones” (1980).
The source made the active and inactive calls. The rule behind the calls is not given here.

Experiments:
Mus musculus [1] = assay: Compound was tested for analgesia in mouse writhing assay by subcutaneous administration; type: functional
Rattus norvegicus [2] = assay: Antagonist activity in rat tail flick assay by subcutaneous administration; type: functional
Rattus norvegicus [3] = assay: Antagonist activity in rat tail flick assay by intraperitoneal administration; type: functional
Rattus norvegicus [4] = species on record: Rattus norvegicus; assay: Ratio of agonist potency to antagonist potency was determined; type: functional
Mus musculus [5] = assay: Compound was tested for analgesia in mouse writhing assay by subcutaneous administration; IA means inactive; type: functional, organism-based
Rattus norvegicus [6] = assay: Compound was tested for antagonist in rat tail flick assay by intraperitoneal administration at dose 25 umol/kg; IA means inactive; type: functional, organism-based
Rattus norvegicus [7] = assay: Compound was tested for antagonist in rat tail flick assay by subcutaneous administration at dose 27 umol/kg; IA means inactive; type: functional, organism-based
Rattus norvegicus [8] = assay: Compound was tested for antagonist in rat tail flick assay by subcutaneous administration at dose 29 umol/kg; IA means inactive; type: functional, organism-based
Mus musculus [9] = assay: Compound was tested for analgesia in mouse writhing assay by subcutaneous administration short duration at 5 min; type: functional; settings: sc
Rattus norvegicus [10] = assay: Compound was tested for antagonist in rat tail flick assay by subcutaneous administration at dose 33 umol/kg; IA means inactive; type: functional, organism-based
[11] = Mus musculus, sc, read-out: ED50
[12] = Rattus norvegicus, Tail, ip, read-out: ED50
[13] = Rattus norvegicus, Tail, sc, read-out: ED50

Structure (SMILES) | ED50 (Mus musculus [1]) [µM/kg] | ED50 (Mus musculus [1]; [11]) [µmol/kg] | ED50 (Rattus norvegicus [3]; [12]) [µmol/kg] | also measured
COc1ccc2c(c1)C13CCN(C)C(C2)[C@H]1C[C@@H](C)C(=O)C3 (stereo in doubt; 6T a) [listing 1 of 2 here] | 15.7 |  |  | 
C[C@H]1C[C@H]2C3Cc4ccc(O)cc4C2(CCN3C)CC1=O (stereo in doubt; 7C) | 0.52 |  |  | ED50 (Rattus norvegicus [2]): 70 µM/kg
COc1ccc2c(c1)C13CCN(CC4CC4)C(C2)[C@@H]1C[C@H](C)C(=O)C3.Cl (some centres not stated) | 1.6 |  |  | ED50 (Rattus norvegicus [3]): 42.6 µM/kg; Ratio (Rattus norvegicus [4]): 0.04
CC[C@@H]1[C@@H](C)C(=O)CC23CCN(CC4CC4)C(Cc4ccc(O)cc42)[C@@H]13 (some centres not stated) |  | > 25 | > 25 | 
COc1ccc2c(c1)C13CCN(C)C(C2)[C@H]1C[C@@H](C)C(=O)C3 (stereo in doubt; 6T) | 5.54 |  |  | ED50 (Rattus norvegicus [2]; [13]): > 70 µmol/kg
C[C@@H]1C[C@@H]2C3Cc4ccc(O)cc4C2(CCN3CC2CCC2)CC1=O (stereo in doubt; 13T) | 2.6 |  | 13.8 | Ratio (Rattus norvegicus [4]): 0.2
C[C@H]1[C@H]2Cc3ccc(O)cc3[C@]1(C)CCN2CC1CC1 [CYCLAZOCINE] |  | 0.41 | 0.81 | Ratio (Rattus norvegicus [4]): 0.5
C[C@@H]1C[C@@H]2C3Cc4ccc(O)cc4C2(CCN3CC2CC2)CC1=O (stereo in doubt; 12T) |  | 8.9 | 2.24 | Ratio (Rattus norvegicus [4]): 4
C=CCN1CC[C@]23c4c5ccc(O)c4O[C@H]2C(=O)CC[C@@]3(O)[C@H]1C5 [NALOXONE] |  |  |  | ED50 (Mus musculus [5]): inactive
C[C@H]1C[C@H]2C3Cc4ccc(O)cc4C2(CCN3CC2CCC2)CC1=O (stereo in doubt; 13C) [listing 1 of 2 here] | 0.047 |  |  | 
C[C@H]1C[C@H]2C3Cc4ccc(O)cc4C2(CCN3CC2CCC2)CC1=O (stereo in doubt; 13C a) | 0.35 |  | > 30 | 
COc1ccc2c(c1)C13CCN(CC4CC4)C(C2)[C@H]1C[C@@H](C)C(=O)C3.Cl (some centres not stated) | >40 |  |  | ED50 (Rattus norvegicus [3]): 3.19 µM/kg
C[C@H]1C[C@H]2C3Cc4ccc(O)cc4C2(CCN3CC2CCC2)CC1=O (stereo in doubt; 13C) [listing 2 of 2 here] |  |  |  | ED50 (Rattus norvegicus [6]): inactive
C[C@H]1C[C@H]2C3Cc4ccc(O)cc4C2(CCN3CC2CC2)CC1=O (stereo in doubt; 12C a) | 2.4 |  |  | ED50 (Rattus norvegicus [3]): 14.4 µM/kg; Ratio (Rattus norvegicus [4]): 0.17
Oc1ccc2c(c1)[C@@]13CCCC[C@@]1(O)[C@@H](C2)N(CC1CCC1)CC3 [BUTORPHANOL] |  | 0.34 | 2 | Ratio (Rattus norvegicus [4]): 0.17
CC[C@H]1[C@H](C)C(=O)CC23CCN(CC4CC4)C(Cc4ccc(OC)cc42)[C@H]13.Cl (some centres not stated) |  | 8.04 | 15.7 | Ratio (Rattus norvegicus [4]): 0.51
COc1ccc2c(c1)C13CCN(CC4CCC4)C(C2)[C@H]1C[C@@H](C)C(=O)C3.Cl (some centres not stated) | 7.31 |  | > 38 | 
CC[C@H]1[C@H](C)C(=O)CC23CCN(CC4CCC4)C(Cc4ccc(O)cc42)[C@H]13 (some centres not stated) |  | 8.19 | 4.84 | Ratio (Rattus norvegicus [4]): 1.7
COc1ccc2c(c1)C13CCN(CC4CCC4)C(C2)[C@@H]1C[C@H](C)C(=O)C3 (some centres not stated) [listing 1 of 2 here] | 0.58 |  |  | 
COc1ccc2c(c1)C13CCN(CC4CCC4)C(C2)[C@H]1C[C@@H](C)C(=O)C3 (some centres not stated) | 20.3 |  |  | 

Structure (SMILES) | ED50 (Mus musculus [1]) [µM/kg] | ED50 (Mus musculus [1]; [11]) [µmol/kg] | ED50 (Rattus norvegicus [3]; [12]) [µmol/kg] | also measured
CC(C)=CCN1CC[C@]2(C)c3cc(O)ccc3C[C@H]1[C@H]2C [(+)-PENTAZOCINE] |  | 12.9 | 36.4 | Ratio (Rattus norvegicus [4]): 0.36
C[C@H]1C[C@H]2C3Cc4ccc(O)cc4C2(CCN3C)CC1=O (stereo in doubt; 7C a) |  | 0.39 |  | ED50 (Rattus norvegicus [2]): 1.82 µM/kg
CC[C@H]1[C@H](C)C(=O)CC23CCN(C)C(Cc4ccc(OC)cc42)[C@H]13 (some centres not stated) |  | 0.49 |  | ED50 (Rattus norvegicus [2]; [13]): 2.75 µmol/kg
COc1ccc2c3c1O[C@H]1[C@@H](O)C=C[C@H]4[C@@H](C2)N(C)CC[C@@]341 [CODEINE] |  | 10.2 |  | ED50 (Rattus norvegicus [2]; [13]): 75 µmol/kg
CC[C@H]1[C@H](C)C(=O)CC23CCN(CC4CCC4)C(Cc4ccc(OC)cc42)[C@H]13 (some centres not stated) |  | 18.7 | > 24 | 
C[C@H]1[C@H](C)C(=O)CC23CCN(C)C(Cc4ccc(O)cc42)[C@H]13 (some centres not stated) |  | 0.4 |  | ED50 (Rattus norvegicus [2]; [13]): 12.4 µmol/kg
C[C@@H]1[C@@H](C)C(=O)CC23CCN(CC4CCC4)C(Cc4ccc(O)cc42)[C@@H]13 (some centres not stated) |  | 0.79 | > 25 | 
CC[C@H]1[C@H](C)C(=O)CC23CCN(C)C(Cc4ccc(O)cc42)[C@H]13 (some centres not stated) |  | 0.14 |  | ED50 (Rattus norvegicus [2]; [13]): 1.5 µmol/kg
COc1ccc2c(c1)C13CCN(CC4CCC4)C(C2)[C@@H]1[C@@H](C)[C@H](C)C(=O)C3 (some centres not stated) |  | 15.8 | > 25 | 
COc1ccc2c(c1)C13CCN(CC4CC4)C(C2)[C@H]1C[C@@H](C)C(=O)C3 (some centres not stated) |  | > 25 | 3.6 | 
C[C@@H]1C[C@@H]2C3Cc4ccc(O)cc4C2(CCN3C)CC1=O (stereo in doubt; 7T) |  | 0.75 |  | ED50 (Rattus norvegicus [2]; [13]): 1.33 µmol/kg
COc1ccc2c(c1)C13CCN(CC4CC4)C(C2)[C@@H]1C[C@H](C)C(=O)C3 (some centres not stated) | 0.66 |  |  | ED50 (Rattus norvegicus [3]): 14.9 µM/kg; Ratio (Rattus norvegicus [4]): 0.04
CC[C@@H]1[C@@H](C)C(=O)CC23CCN(C)C(Cc4ccc(O)cc42)[C@@H]13 (some centres not stated) |  | 7.53 |  | ED50 (Rattus norvegicus [2]; [13]): 7.45 µmol/kg
COc1ccc2c(c1)C13CCN(C)C(C2)[C@@H]1C[C@H](C)C(=O)C3 (stereo in doubt; 6C a) | 0.5 |  |  | ED50 (Rattus norvegicus [2]): 1.6 µM/kg
CC[C@@H]1[C@@H](C)C(=O)CC23CCN(CC4CC4)C(Cc4ccc(OC)cc42)[C@@H]13 (some centres not stated) |  | > 25 | > 25 | 
COc1ccc2c(c1)C13CCN(CC4CCC4)C(C2)[C@@H]1C[C@H](C)C(=O)C3.Cl (some centres not stated) | 3.58 |  | > 25 | 
C[C@@H]1C[C@@H]2C3Cc4ccc(O)cc4C2(CCN3CC2CCC2)CC1=O (stereo in doubt; 13T a) | 0.93 |  |  | ED50 (Rattus norvegicus [3]): >24 µM/kg
C[C@@H]1[C@@H](C)C(=O)CC23CCN(CC4CC4)C(Cc4ccc(O)cc42)[C@@H]13 (some centres not stated) |  | 4.5 | 1.02 | Ratio (Rattus norvegicus [4]): 4.4
C=CCN1CC[C@]23c4c5ccc(O)c4O[C@H]2[C@@H](O)C=C[C@H]3[C@H]1C5 [NALORPHINE] |  | 3.51 | 2.47 | Ratio (Rattus norvegicus [4]): 1.42
CC[C@H]1[C@H](C)C(=O)CC23CCN(CC4CC4)C(Cc4ccc(O)cc42)[C@H]13 (some centres not stated) |  | > 25 | 2.23 | 

Structure (SMILES) | ED50 (Mus musculus [1]) [µM/kg] | ED50 (Mus musculus [1]; [11]) [µmol/kg] | ED50 (Rattus norvegicus [3]; [12]) [µmol/kg] | also measured
COc1ccc2c3c1O[C@H]1C(=O)CC[C@H]4[C@@H](C2)N(C)CC[C@]314 [HYDROCODONE] |  | 2.36 |  | ED50 (Rattus norvegicus [2]; [13]): 5.2 µmol/kg
C[C@H]1[C@H](C)C(=O)CC23CCN(CC4CCC4)C(Cc4ccc(O)cc42)[C@H]13 (some centres not stated) |  | 2.21 | 5.66 | Ratio (Rattus norvegicus [4]): 0.4
CC[C@@H]1[C@@H](C)C(=O)CC23CCN(C)C(Cc4ccc(OC)cc42)[C@@H]13 (some centres not stated) |  | 7.42 |  | ED50 (Rattus norvegicus [7]): inactive
CC[C@@H]1[C@@H](C)C(=O)CC23CCN(CC4CCC4)C(Cc4ccc(O)cc42)[C@@H]13 (some centres not stated) |  | > 25 | > 25 | 
CN1CC[C@]23c4c5ccc(O)c4O[C@H]2C(=O)CC[C@H]3[C@H]1C5 [HYDROMORPHONE] |  |  |  | ED50 (Rattus norvegicus [2]; [13]): 1.34 µmol/kg
CN1CC[C@]23c4c5ccc(O)c4O[C@H]2[C@@H](O)C=C[C@H]3[C@H]1C5 [MORPHINE] |  |  |  | ED50 (Rattus norvegicus [2]; [13]): 19.3 µmol/kg
COc1ccc2c(c1)C13CCN(C)C(C2)[C@@H]1C[C@H](C)C(=O)C3 (stereo in doubt; 6C) | 1.72 |  |  | ED50 (Rattus norvegicus [2]; [13]): 2.32 µmol/kg
C[C@H]1C[C@H]2C3Cc4ccc(O)cc4C2(CCN3CC2CC2)CC1=O (stereo in doubt; 12C) |  | 3.28 | 7.4 | Ratio (Rattus norvegicus [4]): 0.44
COc1ccc2c(c1)C13CCN(C)C(C2)[C@@H]1[C@@H](C)[C@H](C)C(=O)C3 (some centres not stated) |  | 2.16 |  | ED50 (Rattus norvegicus [2]; [13]): 17.9 µmol/kg
COc1ccc2c(c1)C13CCN(C)C(C2)[C@H]1[C@H](C)[C@@H](C)C(=O)C3 (some centres not stated) |  | 3.72 |  | ED50 (Rattus norvegicus [8]): inactive
C[C@@H]1C[C@@H]2C3Cc4ccc(O)cc4C2(CCN3CC2CC2)CC1=O (stereo in doubt; 12T a) |  |  |  | ED50 (Mus musculus [9]): 1.77 µmol/kg; ED50 (Rattus norvegicus [3]): 1.18 µM/kg; Ratio (Rattus norvegicus [4]): 1.5
COc1ccc2c(c1)C13CCN(C)C(C2)[C@H]1C[C@@H](C)C(=O)C3 (stereo in doubt; 6T a) [listing 2 of 2 here] |  |  |  | ED50 (Rattus norvegicus [10]): inactive
COc1ccc2c(c1)C13CCN(CC4CC4)C(C2)[C@@H]1[C@@H](C)[C@H](C)C(=O)C3.Cl (some centres not stated) |  | 2.64 | 12.1 | Ratio (Rattus norvegicus [4]): 0.22
C[C@H]1[C@H](C)C(=O)CC23CCN(CC4CC4)C(Cc4ccc(O)cc42)[C@H]13 (some centres not stated) |  | 23 | 0.35 | Ratio (Rattus norvegicus [4]): 65
COc1ccc2c(c1)C13CCN(CC4CCC4)C(C2)[C@@H]1C[C@H](C)C(=O)C3 (some centres not stated) [listing 2 of 2 here] |  |  |  | ED50 (Rattus norvegicus [6]): inactive
C[C@@H]1C[C@@H]2C3Cc4ccc(O)cc4C2(CCN3C)CC1=O (stereo in doubt; 7T a) | 0.91 |  |  | ED50 (Rattus norvegicus [2]): 1.09 µM/kg
COc1ccc2c(c1)C13CCN(CC4CCC4)C(C2)[C@H]1[C@H](C)[C@@H](C)C(=O)C3 (some centres not stated) |  | > 25 | > 25 | 
CC[C@@H]1[C@@H](C)C(=O)CC23CCN(CC4CCC4)C(Cc4ccc(OC)cc42)[C@@H]13 (some centres not stated) |  | > 25 | > 25 | 
C[C@@H]1[C@@H](C)C(=O)CC23CCN(C)C(Cc4ccc(O)cc42)[C@@H]13 (some centres not stated) |  | 0.58 |  | ED50 (Rattus norvegicus [2]; [13]): 0.68 µmol/kg
COc1ccc2c(c1)C13CCN(CC4CC4)C(C2)[C@H]1[C@H](C)[C@@H](C)C(=O)C3 (some centres not stated) |  | > 26 | > 26 | 
